Experiments:
Assay in all cases: normalised response (% of control), CellTox Green; higher = less cell death (100 = DMSO, 0 = benzethonium chloride kill control)
Settings in all cases: incubation time: 72 h
CAL-120 = system: CAL-120
In short: (§1)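 Each entry is the normalised signal at a single concentration within a series. The series comprised 5 concentrations in 10-fold steps over a compound-specific 10,000-fold range, placed in 384-well plates into which breast cancer cell lines were seeded as 20 µl suspension and incubated 72 h. CellTox Green (485/520 nm) fluorescence and then CellTiter-Glo luminescence were read, with signals normalised per plate to 0.1 % DMSO (100) and a positive kill control (0).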

HCC1143 = system: HCC1143
In short: as §1

CAL-51 = system: CAL-51
In short: as §1

Hs578T = system: Hs578T
In short: as §1

HDQ-P1 = system: HDQ-P1
In short: as §1

CAL-85-1 = system: CAL-85-1
In short: as §1

HCC1937 = system: HCC1937
In short: as §1

MCF-10A = system: MCF-10A
In short: as §1

CAL-148 = system: CAL-148
In short: as §1

Row | Structure (SMILES) | normalised response (CAL-120) | normalised response (HCC1143) | normalised response (CAL-51) | normalised response (Hs578T) | normalised response (HDQ-P1) | normalised response (CAL-85-1) | normalised response (HCC1937) | normalised response (MCF-10A) | normalised response (CAL-148)
1 | COc1ccc(S(=O)(=O)Nc2cccnc2Nc2ccc(O)cc2)cc1 [ABT-751] (1000 nM) | 87.2% | 98.9% | 110% | 78.8% | 90.5% | 35.1% | -57.9% | 81.3% | 
2 | COc1ccc(S(=O)(=O)Nc2cccnc2Nc2ccc(O)cc2)cc1 [ABT-751] (10000 nM) | 92% | 121% | 32.5% | 29.5% | 107% | 50.8% | 108% | 42.6% | 81.8%
3 | Cc1cc(Nc2nc(N[C@@H](C)c3ncc(F)cn3)ncc2Cl)[nH]n1 [AZD1480] (100 nM) | 98.6% | 58.8% | 107% | 96.6% | 97.1% | 99.9% | 100% | 85.5% | 99%
4 | Cc1cc(Nc2nc(N[C@@H](C)c3ncc(F)cn3)ncc2Cl)[nH]n1 [AZD1480] (1000 nM) | 87.1% | 97.3% | 69.4% | 71.7% | 69.3% | 109% | 69.3% | 98.9% | 85.8%
5 | CNC(=O)c1ccccc1Sc1ccc2c(/C=C/c3ccccn3)n[nH]c2c1 [Axitinib] (1000 nM) | 96.4% | 51.8% | 76% | 115% | 102% | 104% | 122% | 97.6% | 108%
6 | CNC(=O)c1ccccc1Sc1ccc2c(/C=C/c3ccccn3)n[nH]c2c1 [Axitinib] (10000 nM) | 92.5% | 103% | 40.2% | 119% | 58.1% | 75.7% | 91.2% | 93.8% | 22.8%
7 | CC(O)(CS(=O)(=O)c1ccc(F)cc1)C(=O)Nc1ccc(C#N)c(C(F)(F)F)c1 (stereo not drawn) [Bicalutamide] (1000 nM) | 97.6% | 111% | 112% |  | 104% | 94.6% | 59.6% | 105% | 87.8%
8 | CC(O)(CS(=O)(=O)c1ccc(F)cc1)C(=O)Nc1ccc(C#N)c(C(F)(F)F)c1 (stereo not drawn) [Bicalutamide] (10000 nM) | 103% | 134% | 92.2% | 86% | 66.2% | 67.6% | 112% | 106% | 105%
9 | CCNC(=O)CCC/C=C\C[C@@H]1[C@@H](/C=C/[C@@H](O)CCc2ccccc2)[C@H](O)C[C@@H]1O [Bimatoprost] (550 nM) | 97.7% | 105% | 106% | 97.8% | 66.3% | 93.9% | 129% | 108% | 104%
10 | CCNC(=O)CCC/C=C\C[C@@H]1[C@@H](/C=C/[C@@H](O)CCc2ccccc2)[C@H](O)C[C@@H]1O [Bimatoprost] (5500 nM) | 98.4% | 117% | 112% | 61.1% | 79.9% | 106% | 104% | 86.9% | 100%
11 | COc1cc(Nc2c(C#N)cnc3cc(OCCCN4CCN(C)CC4)c(OC)cc23)c(Cl)cc1Cl [Bosutinib] (1000 nM) | 104% | 116% | 84.4% | 78% | 93.3% | 93.7% | 110% | 93.7% | 92.5%
12 | COc1cc(Nc2c(C#N)cnc3cc(OCCCN4CCN(C)CC4)c(OC)cc23)c(Cl)cc1Cl [Bosutinib] (10000 nM) | 65.6% | 99.6% | 38.5% | 72.5% | 31.8% | -81.2% | 32.9% | -50.5% | 49%
13 | Cn1cc(C2=C(c3cn(C4CCN(Cc5ccccn5)CC4)c4ccccc34)C(=O)NC2=O)c2ccccc21 [Enzastaurin] (1000 nM) | 103% | 105% | 104% | 97.7% | 87.7% | 97.7% |  | 109% | 60%
14 | Cn1cc(C2=C(c3cn(C4CCN(Cc5ccccn5)CC4)c4ccccc34)C(=O)NC2=O)c2ccccc21 [Enzastaurin] (10000 nM) | 79.2% | 111% | 95.7% |  | 101% | 65% | 121% | 94.4% | 105%
15 | CC(C)(C)NC(=O)[C@H]1CC[C@H]2[C@@H]3CC[C@H]4NC(=O)C=C[C@]4(C)[C@H]3CC[C@]12C [Finasteride] (1000 nM) | 99.4% | 96.8% | 107% | 107% | 113% | 107% | 116% | 91.2% | 104%
16 | CC(C)(C)NC(=O)[C@H]1CC[C@H]2[C@@H]3CC[C@H]4NC(=O)C=C[C@]4(C)[C@H]3CC[C@]12C [Finasteride] (10000 nM) | 106% | 81.5% | 100% |  | 102% | 91.2% | 77.4% | 94.1% | 103%
17 | Nc1ccn([C@@H]2O[C@H](CO)[C@@H](O)C2(F)F)c(=O)n1 [Gemcitabine] (100 nM) | 100% | 111% | 32.1% | 103% | 87.8% | 87.8% | 89% | 94.5% | 48.3%

Row | Structure (SMILES) | normalised response (CAL-120) | normalised response (HCC1143) | normalised response (CAL-51) | normalised response (Hs578T) | normalised response (HDQ-P1) | normalised response (CAL-85-1) | normalised response (HCC1937) | normalised response (MCF-10A) | normalised response (CAL-148)
18 | Nc1ccn([C@@H]2O[C@H](CO)[C@@H](O)C2(F)F)c(=O)n1 [Gemcitabine] (1000 nM) | 96.3% | 103% | 55.1% | 123% | 108% | 73% | 108% | 90.5% | 61.1%
19 | CC(C)C[C@H](NC(=O)[C@@H](COC(C)(C)C)NC(=O)[C@H](Cc1ccc(O)cc1)NC(=O)[C@H](CO)NC(=O)[C@H](Cc1c[nH]c2ccccc12)NC(=O)[C@H](Cc1cnc[nH]1)NC(=O)[C@@H]1CCC(=O)N1)C(=O)N[C@@H](CCCNC(=N)N)C(=O)N1CCC[C@H]1C(=O)NNC(N)=O [Goserelin] (1000 nM) | 102% | 112% | 105% | 102% | 107% | 106% | 83.8% |  | 102%
20 | CC(C)C[C@H](NC(=O)[C@@H](COC(C)(C)C)NC(=O)[C@H](Cc1ccc(O)cc1)NC(=O)[C@H](CO)NC(=O)[C@H](Cc1c[nH]c2ccccc12)NC(=O)[C@H](Cc1cnc[nH]1)NC(=O)[C@@H]1CCC(=O)N1)C(=O)N[C@@H](CCCNC(=N)N)C(=O)N1CCC[C@H]1C(=O)NNC(N)=O [Goserelin] (10000 nM) | 98% |  | 104% |  | 62.5% | 114% | 88% | 75.6% | 104%
21 | CC(=O)[C@]1(O)Cc2c(O)c3c(c(O)c2[C@@H](O[C@H]2C[C@H](N)[C@H](O)[C@H](C)O2)C1)C(=O)c1ccccc1C3=O [Idarubicin] (100 nM) | 98.8% | 102% | 70.2% | 103% |  | 86.2% | 110% | 112% | 36%
22 | CC(=O)[C@]1(O)Cc2c(O)c3c(c(O)c2[C@@H](O[C@H]2C[C@H](N)[C@H](O)[C@H](C)O2)C1)C(=O)c1ccccc1C3=O [Idarubicin] (1000 nM) | 55.6% | 110% | -13.1% | 84% | 85.6% | -10.6% | 113% | 34.9% | 28.9%
23 | C/C(=C\c1csc(C)n1)[C@@H]1C[C@@H]2O[C@]2(C)CCC[C@H](C)[C@H](O)[C@@H](C)C(=O)C(C)(C)[C@@H](O)CC(=O)N1 [Ixabepilone] (100 nM) | 105% | 102% | 35.9% | 95.5% |  | 95.9% |  | 87.7% | 102%
24 | C/C(=C\c1csc(C)n1)[C@@H]1C[C@@H]2O[C@]2(C)CCC[C@H](C)[C@H](O)[C@@H](C)C(=O)C(C)(C)[C@@H](O)CC(=O)N1 [Ixabepilone] (1000 nM) | 99.3% | 120% | 33.8% | 115% | 96.2% | 14.6% | 92.4% | 101% | 100%
25 | C=CCn1c(=O)c2cnc(Nc3ccc(N4CCN(C)CC4)cc3)nc2n1-c1cccc(C(C)(C)O)n1 [MK1775] (1000 nM) | 79.1% | 103% | 17.8% | 71.9% | 48.7% | 25.9% | 103% | 64.5% | -11.1%
26 | C=CCn1c(=O)c2cnc(Nc3ccc(N4CCN(C)CC4)cc3)nc2n1-c1cccc(C(C)(C)O)n1 [MK1775] (10000 nM) | 53.2% | 14.8% | 41.9% | 33.3% | 40.5% | 4.99% | 65.6% | -5.92% | 22.7%
27 | CO[C@@H]1[C@H](N(C)C(=O)c2ccccc2)C[C@H]2O[C@]1(C)n1c3ccccc3c3c4c(c5c6ccccc6n2c5c31)C(=O)NC4 [Midostaurin] (1000 nM) | 91.7% | 63.8% | -37.7% | 64.2% | 93% | 92.1% | 52.8% | 93.8% | 67.4%
28 | CO[C@@H]1[C@H](N(C)C(=O)c2ccccc2)C[C@H]2O[C@]1(C)n1c3ccccc3c3c4c(c5c6ccccc6n2c5c31)C(=O)NC4 [Midostaurin] (10000 nM) | 80.8% | 91.4% | -24.3% | 21.1% | 55.3% | 97.5% | 91.9% | 93.3% | 66.4%
29 | CO[C@@]12[C@H](COC(N)=O)C3=C(C(=O)C(C)=C(N)C3=O)N1C[C@@H]1N[C@@H]12 [Mitomycin C] (1000 nM) | 100% | 104% | 35.3% | 90.8% | 106% | 97.6% | 111% | 90.1% | 97.8%
30 | CO[C@@]12[C@H](COC(N)=O)C3=C(C(=O)C(C)=C(N)C3=O)N1C[C@@H]1N[C@@H]12 [Mitomycin C] (10000 nM) | 98.4% | 36.6% | -36.9% | 77.6% | 71.8% | 102% | 108% | 85.4% | 42.2%
31 | CCNC(=O)c1noc(-c2cc(C(C)C)c(O)cc2O)c1-c1ccc(CN2CCOCC2)cc1 [NVP-AUY922] (100 nM) | 90.3% | 87.9% | 64.1% | 102% | 62.8% | 63.1% | 125% | 57.5% | 21.6%
32 | CCNC(=O)c1noc(-c2cc(C(C)C)c(O)cc2O)c1-c1ccc(CN2CCOCC2)cc1 [NVP-AUY922] (1000 nM) | 88.4% | 74.2% | 48.1% | -31.9% | 68.8% | 37.6% | 48.9% | 39.3% | 42.9%
33 | CC1(C)CCC(c2ccc(Cl)cc2)=C(CN2CCN(c3ccc(C(=O)NS(=O)(=O)c4ccc(N[C@H](CCN5CCOCC5)CSc5ccccc5)c(S(=O)(=O)C(F)(F)F)c4)cc3)CC2)C1 [Navitoclax] (1000 nM) | 50.3% | 92.9% | 60.1% | 84.3% | 54.7% | 79.3% | 92.8% |  | 71.7%
34 | O=C(CCCCCCC(=O)Nc1ccccc1)NO [Vorinostat] (1000 nM) | 95.1% | 100% | 96.6% | 78.8% |  | 95.5% | 122% | 89.9% | 100%
